According to ChEMBL document CHEMBL1137189, “Syntheses and anti-MRSA activities of the C3 analogs of mansonone F, a potent anti-bacterial sesquiterpenoid: insights into its structural requirements for anti-MRSA activity” (2004):
Converted amounts (≈) assume the structure as drawn.

Tested on: Staphylococcus aureus
Assay: Minimum inhibitory concentration against methicillin-resistant Staphylococcus aureus
Assay type: functional

Row | SMILES | MIC50 [µg/mL] | MIC90 [µg/mL]
1 | CCC1(O)COC2=C(C)C(=O)C(=O)c3c(C)ccc1c32 (configuration not stated) | 16 (≈ 58.8 µM) | 16 (≈ 58.8 µM)
2 | CCCCC1=COC2=C(C)C(=O)C(=O)c3c(C)ccc1c32 | 8 (≈ 28.3 µM) | 8 (≈ 28.3 µM)
3 | CC1=C2OCC(CC(=O)O)c3ccc(C)c(c32)C(=O)C1=O (configuration not stated) | > 32 | > 32
4 | CC1=C2OCC(C)(O)c3ccc(C)c(c32)C(=O)C1=O (configuration not stated) | 16 (≈ 61.9 µM) | > 32
5 | CC1=COc2c(C)ccc3c(C)ccc1c23 | > 32 | > 32
6 | CC1=C2OCC(Cl)(C(F)(F)F)c3ccc(C)c(c32)C(=O)C1=O (configuration not stated) | 16 (≈ 48.4 µM) | 16 (≈ 48.4 µM)
7 | CCOC(=O)CC1COC2=C(C)C(=O)C(=O)c3c(C)ccc1c32 (configuration not stated) | 16 (≈ 50.9 µM) | 32 (≈ 102 µM)
8 | CC1=C2OC=C(C#N)c3ccc(C)c(c32)C(=O)C1=O | 8 (≈ 31.8 µM) | 16 (≈ 63.7 µM)
9 | CCC1=COC2=C(C)C(=O)C(=O)c3c(C)ccc1c32 | 4 (≈ 15.7 µM) | 4 (≈ 15.7 µM)
10 | COC1=CC(=O)C(=O)C=C1C | > 32 | > 32
11 | CC1=C2OC=C(CCO)c3ccc(C)c(c32)C(=O)C1=O | > 32 | > 32
12 | CN[C@H](CC(C)C)C(=O)N[C@H]1C(=O)N[C@@H](CC(N)=O)C(=O)N[C@H]2C(=O)N[C@H]3C(=O)N[C@H](C(=O)N[C@H](C(=O)O)c4cc(O)cc(O)c4-c4cc3ccc4O)[C@H](O)c3ccc(c(Cl)c3)Oc3cc2cc(c3O[C@@H]2O[C@H](CO)[C@@H](O)[C@H](O)[C@H]2O[C@H]2C[C@](C)(N)[C@H](O)[C@H](C)O2)Oc2ccc(cc2Cl)[C@H]1O [VANCOMYCIN] | 2 (≈ 1.38 µM) | 2 (≈ 1.38 µM)
13 | C=CC1=COC2=C(C)C(=O)C(=O)c3c(C)ccc1c32 | > 32 | > 32
14 | CC1=C2OC=C(C(C)C)c3ccc(C)c(c32)C(=O)C1=O | 4 (≈ 14.9 µM) | 4 (≈ 14.9 µM)
15 | CC1=COc2c(C)cc([N+](=O)[O-])c3c(C)ccc1c23 | > 32 | > 32
16 | CC1=C2OC=C(C(F)(F)F)c3ccc(C)c(c32)C(=O)C1=O | 16 (≈ 54.4 µM) | > 32
17 | CC1=C2OC=Cc3ccc(C)c(c32)C(=O)C1=O | 8 (≈ 35.4 µM) | 8 (≈ 35.4 µM)
18 | CC1=C2OCC(C)c3ccc(C)c(c32)C(=O)C1=O (configuration not stated) [MANSONONE E] | 8 (≈ 33 µM) | 16 (≈ 66 µM)
19 | CC1=C2OCCc3ccc(C)c(c32)C(=O)C1=O | 16 (≈ 70.1 µM) | 16 (≈ 70.1 µM)
20 | COC1=C(C)C(=O)C(=O)c2c(C)cccc21 | > 32 | > 32
21 | CCC1COC2=C(C)C(=O)C(=O)c3c(C)ccc1c32 (configuration not stated) | 32 (≈ 125 µM) | 32 (≈ 125 µM)
